pIC50: −log10 of the molar value.
These molecules were tested against human Edg-2 receptor (LPA1 receptor) (Homo sapiens, UniProt Q92633) (assay: Edg-2 receptor inhibition by FLIPR calcium fluorescence measurement (LPA-mediated calcium liberation)). Conditions: CHO cells stably overexpressing human Edg-2 receptor; LPA 18:1 100 nM; fluo-4 fluorescence; triplicate; read-out: Inhibitory concentrations IC50 for inhibition of the Edg-2 receptor.
Type: cell-based
Procedure: A) Determination of Edg-2 Receptor Inhibition by Fluorescence Imaging Plate Reader (FLIPR) Measurements
The inhibition of the Edg-2 receptor (LPA1 receptor) by the compounds of the invention was quantified by the inhibitory effect on the LPA-mediated calcium liberation in a cell-based calcium fluorescence assay by use of Chinese hamster ovarian (CHO) cells in which the human Edg-2 receptor was stably overexpressed (FIp-In system, Invitrogen). […] Changes in intracellular calcium were determined by fluorescence measurement with the calcium-sensitive dye fluo-4 (Invitrogen) in a fluorescence imaging plate reader (FLIPR, […]).
CHO cells stably overexpressing the human Edg-2 receptor were seeded (40.000 per well) in black clear-bottomed poly-D-lysine-coated 96 well plates (Becton Dickinson, Biocoat cellware) approximately 18-24 h prior to the experiments. Cells were grown in an incubator at 37° C., 5% carbon dioxide and 95% humidity in cell culture media based on F-12 glutamax media (Gibco, #31765) supplemented with 1% (vol/vol) penicilline/streptomycine (PAN, #P06-07100), 10% (vol/vol) fetal calf serum (FCS, PAA, #A15-151) and hygromycin B (Invitrogen, #10687-010) 300 mg/l (final concentrations).
Prior to the FLIPR experiment, cells were loaded with fluo-4 acetoxymethyl ester (fluo-4 AM, Invitrogen, #F14202) for 60 min in an incubator at 37° C., 5% carbon dioxide and 95% humidity in dye-loading buffer consisting of Hanks' Balanced Salt Solution (HBSS, Invitrogen, #14065049) supplemented with fluo-4 AM at 2 μM (all data given for final concentration), Pluronic® F-127 0.05% (vol/vol) (Invitrogen, #P-3000 MP), HEPES 20 mM (Gibco, #15630), probenecid 2.5 mM (Sigma, #P-8761) and bovine serum albumin 0.05% (BSA, Sigma, #A-6003), adjusted to pH 7.5 with sodium hydroxide. During cell loading, fluo-4 AM is cleaved by intracellular esterase resulting in trapping of the dye fluo-4 within the cells. Loading was terminated by washing of the cells in a cell washer (Tecan Power washer) three times with the buffer specified afore but without fluo-4 AM and BSA. This latter buffer was also used as the buffer in the subsequent cell fluorescence measurements.
The dye-loaded and washed cells were pre-incubated for approximately 5 min with various concentrations of the test compound added as a solution in DMSO (0.3% vol/vol maximum final concentration of DMSO), or with DMSO in the respective concentration only (positive control). Subsequent addition of LPA (18:1, 1-oleoyl-sn-glycerol 3-phosphate; 100 nM final concentration) leads to liberation of intracellular calcium from internal stores resulting in a large transient increase of the fluo-4 fluorescence signal which was monitored over approximately 3 min. The percent inhibition caused by the test compound was determined from the maximum fluorescence response after LPA addition to cells pre-incubated with the compound as compared to the maximum fluorescence response after LPA addition to cells pre-incubated with DMSO only. All fluorescence values were corrected for the baseline fluorescence values obtained with cells which were pre-incubated with DMSO only and were not treated with LPA (baseline control). All measurements were performed in triplicate. From the percent inhibitions the inhibitory concentration IC50 was determined.

Sequence of human Edg-2 receptor (LPA1 receptor) (Q92633 whole entry): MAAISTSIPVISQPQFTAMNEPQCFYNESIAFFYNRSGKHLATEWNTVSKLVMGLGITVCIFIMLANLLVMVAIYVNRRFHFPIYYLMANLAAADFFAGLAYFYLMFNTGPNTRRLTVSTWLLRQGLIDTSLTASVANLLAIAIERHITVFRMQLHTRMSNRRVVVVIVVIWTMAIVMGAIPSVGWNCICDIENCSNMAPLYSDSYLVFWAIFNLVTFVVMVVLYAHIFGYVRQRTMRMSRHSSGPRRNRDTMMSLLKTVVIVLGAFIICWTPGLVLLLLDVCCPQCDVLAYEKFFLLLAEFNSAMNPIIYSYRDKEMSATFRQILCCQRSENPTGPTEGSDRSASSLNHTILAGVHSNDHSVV

COc1ccc(C(=O)NC2(C(=O)O)Cc3ccccc3C2)cc1OS(=O)(=O)c1ccccc1 [Example 109, 2-(3-Benzenesulfonyloxy-4-methoxy-benzoylamino)-indane-2-carboxylic acid] and COc1ccc(C(=O)NC2(C(=O)O)Cc3ccccc3C2)cc1OS(=O)(=O)c1cccc(C)c1 [Example 111, 2-[3-(toluene-3-sulfonyloxy)-4-methoxy-benzoylamino]-indane-2-carboxylic acid] fall in the same range of pIC50: 4.52 to 6.00 for the first, 4.52 to 6.00 for the second.

COc1ccc(C(=O)NC2(C(=O)O)Cc3ccccc3C2)cc1OS(=O)(=O)c1ccc(C)cc1 [Example 110] and COc1ccc(C(=O)NC2(C(=O)O)Cc3ccccc3C2)cc1OS(=O)(=O)c1ccccc1C [Example 112] fall in the same range of pIC50: 4.52 to 6.00 for the first, 4.52 to 6.00 for the second.

COc1ccc(C(=O)NC2(C(=O)O)Cc3ccccc3C2)cc1C(=O)COc1cccc(C)c1 [Example 113, 2-[4-Methoxy-3-(2-m-tolyloxy-acetyl)-benzoylamino]-indane-2-carboxylic acid] and COc1ccc(C(=O)NC2(C(=O)O)Cc3ccccc3C2)cc1C(O)COc1cccc(C)c1 (centres unmarked) [Example 114, 2-[3-(1-Hydroxy-2-m-tolyloxy-ethyl)-4-methoxy-benzoylamino]-indane-2-carboxylic acid] fall in the same range of pIC50: 4.52 to 6.00 for the first, 4.52 to 6.00 for the second.

First: COc1ccc(C(=O)NC2(C(=O)O)Cc3ccccc3C2)cc1CCOc1cccc(C)c1 [Example 115, 2-[4-Methoxy-3-(2-m-tolyloxy-ethyl)-benzoylamino]-indane-2-carboxylic acid]
Second: COc1ccc(C(=O)NC2(C(=O)O)Cc3ccccc3C2)cc1CCCc1cccc(C)c1 [Example 116, 2-[4-Methoxy-3-(3-m-tolyl-propyl)-benzoylamino]-indane-2-carboxylic acid]
The pIC50 of the first is lower: 4.52 to 6.00 for the first, > 7.00 for the second.

Compared with COc1ccc(C(=O)NC2(C(=O)O)Cc3ccccc3C2)cc1NC(=O)Cc1ccccc1 [Example 117, 2-(4-Methoxy-3-phenylacetylamino-benzoylamino)-indane-2-carboxylic acid], COc1ccc(C(=O)NC2(C(=O)O)Cc3ccccc3C2)cc1NC(=O)Cc1cccc(Br)c1 [Example 118] is lower in pIC50: 6.00 to 7.00 for the first, 4.52 to 6.00 for the second.

COc1ccc(C(=O)NC2(C(=O)O)Cc3ccccc3C2)cc1NC(=O)Cc1cccc(Cl)c1 [Example 119] and COc1ccc(C(=O)NC2(C(=O)O)Cc3ccccc3C2)cc1NCc1cccc(Cl)c1 [Example 123] fall in the same range of pIC50: 4.52 to 6.00 for the first, 4.52 to 6.00 for the second.

COc1ccc(C(=O)NC2(C(=O)O)Cc3ccccc3C2)cc1NC(=O)c1cccc(F)c1 [Example 120, 2-[3-[3-fluoro-benzoylamino)-4-methoxy-benzoylamino)-indane-2-carboxylic acid] and COc1ccc(C(=O)NC2(C(=O)O)Cc3ccccc3C2)cc1NCc1ccc(F)cc1 [Example 121, 2-[3-(4-Fluoro-benzylamino)-4-methoxy-benzoylamino]-indane-2-carboxylic acid] fall in the same range of pIC50: 4.52 to 6.00 for the first, 4.52 to 6.00 for the second.

Compared with COc1ccc(C(=O)NC2(C(=O)O)Cc3ccccc3C2)cc1NCCc1ccccc1 [Example 122, 2-[3-[2-phenyl-ethylamino)-4-methoxy-benzoylamino)-indane-2-carboxylic acid], COc1ccc(C(=O)NC2(C(=O)O)Cc3ccccc3C2)cc1OCCc1ccccc1 [Example 130] is higher in pIC50: 6.00 to 7.00 for the first, > 7.00 for the second.

Compared with COc1ccc(C(=O)NC2(C(=O)O)Cc3ccccc3C2)cc1NCC(C)c1ccccc1 (centres unmarked) [Example 124], COc1ccc(C(=O)NC2(C(=O)O)Cc3ccccc3C2)cc1OCC(C)c1ccccc1 (centres unmarked) [Example 144] is higher in pIC50: 6.00 to 7.00 for the first, > 7.00 for the second.

Compared with COc1ccc(C(=O)NC2(C(=O)O)Cc3ccccc3C2)cc1OCc1cccc(C)c1 [Example 126], COc1ccc(C(=O)NC2(C(=O)O)Cc3ccccc3C2)cc1OCCc1cccc(F)c1 [Example 131] is higher in pIC50: 4.52 to 6.00 for the first, > 7.00 for the second. The second is the more potent here.

First: COc1ccc(C(=O)NC2(C(=O)O)Cc3ccccc3C2)cc1OCCc1cccc(C(F)(F)F)c1 [Example 127, 2-{4-methoxy-3-[2-(3-trifluoromethyl-phenyl)-ethoxy]-benzoylamino}-indane-2-carboxylic acid]
Second: O=C(NC1(C(=O)O)Cc2ccccc2C1)c1ccc(Cl)c(OCCc2cccc(C(F)(F)F)c2)c1 [Example 128]
The pIC50 of the first is higher: > 7.00 for the first, 6.00 to 7.00 for the second. The first is the more potent here.

Cc1cccc(CCOc2cc(C(=O)NC3(C(=O)O)Cc4ccccc4C3)ccc2C)c1 [Example 129] and Cc1cccc(CCOc2cc(C(=O)NC3(C(=O)O)Cc4ccccc4C3)ccc2F)c1 [Example 145] fall in the same range of pIC50: 6.00 to 7.00 for the first, 6.00 to 7.00 for the second.

COc1ccc(C(=O)NC2(C(=O)O)Cc3ccccc3C2)cc1OCCc1cccc(Cl)c1 [Example 132] and COc1ccc(C(=O)NC2(C(=O)O)Cc3ccccc3C2)cc1OCCc1cccc(Br)c1 [Example 143] cannot be ordered by pIC50: > 7.00 for the first, > 7.00 for the second.

First: COc1cccc(CCOc2cc(C(=O)NC3(C(=O)O)Cc4ccccc4C3)ccc2OC)c1 [Example 133]
Second: COc1ccc(CCOc2cc(C(=O)NC3(C(=O)O)Cc4ccccc4C3)ccc2OC)cc1 [Example 137]
The pIC50 of the first is higher: 6.00 to 7.00 for the first, 4.52 to 6.00 for the second.

First: COc1ccc(C(=O)NC2(C(=O)O)Cc3ccccc3C2)cc1OCCc1ccccc1C [Example 134]
Second: COc1ccc(C(=O)NC2(C(=O)O)Cc3ccccc3C2)cc1OCCc1ccccc1F [Example 139]
The pIC50 of the first is lower: 4.52 to 6.00 for the first, 6.00 to 7.00 for the second. The second is the more potent here.

COc1ccc(C(=O)NC2(C(=O)O)Cc3ccccc3C2)cc1OCCc1ccc(C)cc1 [Example 135] and COc1ccc(C(=O)NC2(C(=O)O)Cc3ccccc3C2)cc1OCCc1ccc(F)cc1 [Example 136] fall in the same range of pIC50: 4.52 to 6.00 for the first, 4.52 to 6.00 for the second.

Compared with COc1ccccc1CCOc1cc(C(=O)NC2(C(=O)O)Cc3ccccc3C2)ccc1OC [Example 138], COc1ccc(C(=O)NC2(C(=O)O)Cc3ccccc3C2)cc1OCCc1ccccc1Cl [Example 149] is higher in pIC50: 4.52 to 6.00 for the first, > 7.00 for the second.

First: COc1ccc(C(=O)NC2(C(=O)O)Cc3ccccc3C2)cc1OCCc1cc(C)ccc1C [Example 140]
Second: COc1ccc(C(=O)NC2(C(=O)O)Cc3ccccc3C2)cc1OCCc1cccc(Cl)c1F [Example 153]
The pIC50 of the first is lower: 4.52 to 6.00 for the first, 6.00 to 7.00 for the second. The second is the more potent here.

Cc1cccc(CCOc2cccc(C(=O)NC3(C(=O)O)Cc4ccccc4C3)c2)c1 [Example 141] and COc1ccc(C(=O)NC2(C(=O)O)Cc3ccccc3C2)cc1OCCCc1ccccc1 [Example 151] fall in the same range of pIC50: 4.52 to 6.00 for the first, 4.52 to 6.00 for the second.

COc1ccc(C(=O)NC2(C(=O)O)Cc3ccccc3C2)cc1OC(C)Cc1ccccc1 (centres unmarked) [Example 142] and COc1ccc(C(=O)NC2(C(=O)O)Cc3ccccc3C2)cc1OCCc1ccccn1 [Example 148] fall in the same range of pIC50: 4.52 to 6.00 for the first, 4.52 to 6.00 for the second.

COc1ccc(C(=O)NC2(C(=O)O)Cc3ccccc3C2)cc1OCCc1ccsc1 [Example 146] and COc1ccc(C(=O)NC2(C(=O)O)Cc3ccccc3C2)cc1OCCc1cccs1 [Example 147] fall in the same range of pIC50: 6.00 to 7.00 for the first, 6.00 to 7.00 for the second.

First: COc1ccc(C(=O)NC2(C(=O)O)Cc3ccccc3C2)cc1OCCC1CCCC1 [Example 150]
Second: COc1ccc(C(=O)NC2(C(=O)O)Cc3ccccc3C2)cc1OCCc1c(F)cccc1Cl [Example 152]
The pIC50 of the first is lower: 4.52 to 6.00 for the first, > 7.00 for the second. The second is the more potent here.

Compared with COc1ccc(C(=O)NC2(C(=O)O)Cc3ccccc3C2)cc1OCCc1cc(C(F)(F)F)ccc1F [Example 154], COc1ccc(C(=O)NC2(C(=O)O)Cc3ccccc3C2)cc1OCCc1cccc(C(F)(F)F)c1F [Example 155] is lower in pIC50: > 7.00 for the first, 4.52 to 6.00 for the second.

For COc1ccc(C(=O)NC2(C(=O)O)Cc3ccc(Br)cc3C2)cc1OCCc1cccc(C)c1 (centres unmarked) [Example 156, 5-Bromo-2-[4-methoxy-3-(2-m-tolyl-ethoxy)-benzoylamino]-indane-2-carboxylic acid], the pIC50 was > 7.00.
